Data from US20210046137A1, “ANTIMICROBIAL PHOTOSENSITIZER COMPOSITION AND METHOD” (ToeFX Inc., priority 2018, published 2021).

How the values were obtained:
[1] = test system: Trichophyton rubrum; test: Methylene blue phototherapy of infected nail pieces, ex vivo; type: cell-based; parameters: key to Fungal growth on nail pieces after treatment: “G” indicates growth; “N” indicates no growth
Experimental: Sterilized nail pieces were placed on fresh T.rubrum lawn to be infected for at least 10 days with dorsal side upwards. […] Control was carrier solution with no Methylene blue. […] The nails were exposed to red light (640 nm, 9 W—3 LED lights, 3 W each) for 30 min. Amount of viable fungal colonies of Trichophyton rubrum after treatment relative to control was observed using microscope and once visual continued to be monitored with the naked eye. Results are shown in Table 2, where “G” indicates growth and “N” indicates no growth. […] After 5 days mycelium growth was found for the 0.0625% and 0.03125% treatments. After 6 days of the treatment mycelium was found for the 0.125% treatments. […] Meaning that there is a need for a secondary treatment or alternative treatment in order to obtain prolonged inhibition of re-growth.

[2] = test system: C. albicans; details: low curcumin concentrations, planktonic and biofilm form; cited from earlier work

CN(C)c1ccc2nc3ccc(=[N+](C)C)cc-3sc2c1 [MB, Methylene blue]
did not kill nor inhibit: Effect on fungus growth ([1]; MB alone (without light), separate experiment)
6 days: Days after treatment at which mycelium growth was found ([1]; 0.125% MB, red light 640 nm 30 min)
N: Fungal growth on nail pieces after treatment ([1]; 0.03% MB in carrier, red light 640 nm 30 min, Day 3) | Fungal growth on nail pieces after treatment ([1]; 0.03% MB in carrier, red light 640 nm 30 min, Day 4) | Fungal growth on nail pieces after treatment ([1]; 0.0625% MB in carrier, red light 640 nm 30 min, Day 3) | Fungal growth on nail pieces after treatment ([1]; 0.0625% MB in carrier, red light 640 nm 30 min, Day 4) | Fungal growth on nail pieces after treatment ([1]; 0.125% MB in carrier, red light 640 nm 30 min, Day 3) | Fungal growth on nail pieces after treatment ([1]; 0.125% MB in carrier, red light 640 nm 30 min, Day 4) | Fungal growth on nail pieces after treatment ([1]; 0.125% MB in carrier, red light 640 nm 30 min, Day 6) | Fungal growth on nail pieces after treatment ([1]; 0.25% MB in carrier, red light 640 nm 30 min, Day 3) | Fungal growth on nail pieces after treatment ([1]; 0.25% MB in carrier, red light 640 nm 30 min, Day 4) | Fungal growth on nail pieces after treatment ([1]; 0.25% MB in carrier, red light 640 nm 30 min, Day 6) | Fungal growth on nail pieces after treatment ([1]; 0.25% MB in carrier, red light 640 nm 30 min, Day 7) | Fungal growth on nail pieces after treatment ([1]; 0.25% MB in carrier, red light 640 nm 30 min, Day 8) | Fungal growth on nail pieces after treatment ([1]; 0.25% MB in carrier, red light 640 nm 30 min, Day 9) | Fungal growth on nail pieces after treatment ([1]; 0.25% MB in carrier, red light 640 nm 30 min, Day 10) | Fungal growth on nail pieces after treatment ([1]; 0.25% MB in carrier, red light 640 nm 30 min, Day 12)
G: Fungal growth on nail pieces after treatment ([1]; 0.03% MB in carrier, red light 640 nm 30 min, Day 6) | Fungal growth on nail pieces after treatment ([1]; 0.03% MB in carrier, red light 640 nm 30 min, Day 7) | Fungal growth on nail pieces after treatment ([1]; 0.03% MB in carrier, red light 640 nm 30 min, Day 8) | Fungal growth on nail pieces after treatment ([1]; 0.03% MB in carrier, red light 640 nm 30 min, Day 9) | Fungal growth on nail pieces after treatment ([1]; 0.03% MB in carrier, red light 640 nm 30 min, Day 10) | Fungal growth on nail pieces after treatment ([1]; 0.03% MB in carrier, red light 640 nm 30 min, Day 12) | Fungal growth on nail pieces after treatment ([1]; 0.03% MB in carrier, red light 640 nm 30 min, Day 13) | Fungal growth on nail pieces after treatment ([1]; 0.0625% MB in carrier, red light 640 nm 30 min, Day 6) | Fungal growth on nail pieces after treatment ([1]; 0.0625% MB in carrier, red light 640 nm 30 min, Day 7) | Fungal growth on nail pieces after treatment ([1]; 0.0625% MB in carrier, red light 640 nm 30 min, Day 8) | Fungal growth on nail pieces after treatment ([1]; 0.0625% MB in carrier, red light 640 nm 30 min, Day 9) | Fungal growth on nail pieces after treatment ([1]; 0.0625% MB in carrier, red light 640 nm 30 min, Day 10) | Fungal growth on nail pieces after treatment ([1]; 0.0625% MB in carrier, red light 640 nm 30 min, Day 12) | Fungal growth on nail pieces after treatment ([1]; 0.0625% MB in carrier, red light 640 nm 30 min, Day 13) | Fungal growth on nail pieces after treatment ([1]; 0.125% MB in carrier, red light 640 nm 30 min, Day 7) | Fungal growth on nail pieces after treatment ([1]; 0.125% MB in carrier, red light 640 nm 30 min, Day 8) | Fungal growth on nail pieces after treatment ([1]; 0.125% MB in carrier, red light 640 nm 30 min, Day 9) | Fungal growth on nail pieces after treatment ([1]; 0.125% MB in carrier, red light 640 nm 30 min, Day 10) | Fungal growth on nail pieces after treatment ([1]; 0.125% MB in carrier, red light 640 nm 30 min, Day 12) | Fungal growth on nail pieces after treatment ([1]; 0.125% MB in carrier, red light 640 nm 30 min, Day 13) | Fungal growth on nail pieces after treatment ([1]; 0.25% MB in carrier, red light 640 nm 30 min, Day 13)
12 days: Days after treatment at which growth was found ([1]; 0.25% MB, red light 640 nm 30 min)
5 days: Days after treatment at which mycelium growth was found ([1]; 0.03125% MB, red light 640 nm 30 min) | Days after treatment at which mycelium growth was found ([1]; 0.0625% MB, red light 640 nm 30 min)

COc1cc(/C=C/C(=O)CC(=O)/C=C/c2ccc(O)c(OC)c2)ccc1O [curcumin, diferuloylmethane]
highly effective: photoinactivating C. albicans [2]
